From patent US4178449A, “Pyrazolo[1,5-a]pyrimidines and imidazo-[1,5-a]pyrimidines” (American Cyanamid Company, priority 1978, dated 1979)

What was measured:
[1] = system: pentylenetetrazole clonic seizures in rats; experiment: protection from convulsions resulting from the administration of pentylenetetrazole; format: in vivo, rat; parameters: key: Active: The test compounds are considered active if they protect 50% or more of the rats from clonic seizures; conditions: oral or intraperitoneal, single or graded doses, pentylenetetrazole 21 to 23 mg./kg. i.v. at 30 or 60 minutes
Method: The anti-anxiety properties of the novel compounds of the present invention have been established in a test which indicates anxiolytic activity by the measure of protection from convulsions resulting from the administration of pentylenetetrazole. Single or graded dose levels of the test compounds were administered orally or intraperitoneally in a 2% starch vehicle, to groups of at least 4 rats. At 30 or 60 minutes, the rats were treated intravenously with pentylenetetrazole at a dose of 21 to 23 mg./kg. of body weight. This dose is estimated to cause clonic seizures in 99% of unprotected rats. The test compounds are considered active if they protect 50% or more of the rats from clonic seizures. It has been reported [R. T. Hill and D. H. Tedeschi, "Animal Testing and Screening Procedures in Evaluating Psychotropic Drugs" in "An Introduction to Psychopharmacology", Eds. R. R. Rech and K. E. Moore, Raven Press, New York, pp. 237-288 (1971)] that there is a high degree of correlation between antagonism of pentylenetetrazole seizures in rats and anti-anxietyeffects in higher warm-blooded animals.

[2] = system: 3H-diazepam binding to the brain receptors (rat frontal cortex P2-synaptosomal fraction); experiment: inhibition of 3H-diazepam binding to brain receptors; parameters: key: Active: A compound which exhibits the ability to inhibit binding by ≥20% is considered to be active; conditions: 3H-diazepam (1.5 mM.), 20 minutes in ice
From the text: Another test used to measure anxiolytic activity comprises measurement of the ability of test compounds to inhibit the binding of ^3 H-diazepam to the brain receptors of warm-blooded animals. The test is described by R. F. Squires in Nature, 266, No. 21 page 732 (April 1977) and H. Mohler and T. Okada, Science, 198, 849 (1977). A modification of this test was employed wherein the animals used were male albino rats of the Wistar strain, weighing 150-200 g. each from Royalhart Farms. Diazepam (methyl-^3 H) was obtained from New England Nuclear. The test compounds were solubilized in either dimethylformamide, acetic acid, ethanol or hydrochloric acid. Frontal cortex of rats was homogenized gently in 20 volumes of ice-cold 0.32 M. sucrose, centrifuged twice at 1000 g. for 10 minutes and then recentrifuged at 30,000 g. for 20 minutes to produce a crude P2 -synaptosomal fraction. The P2 -fraction was resuspended, twice the original volume, in hypotonic 50 mM. Tris.HCl (pH 7.4). The binding assay consisted of 300 μl. of the P2 -fraction suspension (0.350 mg.), 100 μl. of test drug and 100 μl. of ^3 H-diazepam ([…].),. which was added to 1.5 ml. of 50 mM. Tris.HCl (pH 7.4). Non-specific binding controls and total binding controls received 100 μl. of diazepam (3 μm.) and 100 μl. of deionized water, respectively, in place of the test compound. Incubation for 20 minutes proceeded in ice and was terminated by filtration, under vacuum, through Whatman GF/C glass fiber filters. The filters were washed twice with 5 ml. of ice-cold 50 mM. Tris.HCl (pH 7.4) and placed in scintillation vials. After drying at 50°-60° C. for 30 minutes, 10 ml. of Beckman Ready-Solve HP was added and the radioactivity determined in a Beckman Scintillation Counter. The percentage of inhibition of diazepam binding is calculated for each compound. […] Representative compounds of the present invention which were active when tested by the diazepam binding assay are set forth in Table III below.

[3] = system: conflict situation (shocks taken) in Wistar strain rats; experiment: non-conditioned passive avoidance (conflict) procedure; format: in vivo, rat; parameters: key: Active: The test compounds are considered active if the shocks received by the test group are significantly different from the control group by the Mann-Whitney U test; conditions: oral or intraperitoneal, single or graded doses, tested at 30 or 60 minutes, 5 minute interval
Method: Another test which has been used to assess anti-anxiety effect is a non-conditioned passive avoidance procedure described by J. R. Vogel, B. Beer and D. E. Clody, "A Simple and Reliable Conflict Procedure for Testing Anti-Anxiety Agents", Psychopharmacologia, 21, 1-7 (1971). A conflict situation is induced in rats by a modification of this method. Groups of 6 naive, Wistar strain rats, weighing 200-240 g. each were deprived of water for 48 hours and food for 24 hours. The test compounds were administered in single or graded, oral or intraperitoneal doses suspended in a 2% starch vehicle containing 0.5% v/v polyethylene glycol and one drop of Polysorbate 80. Control animals received the vehicle alone. At 30 or 60 minutes each rat was placed in individual black plexiglass chambers. A 10% dextrose solution was available ad libitum from a tap located in the rear of the chamber. A 0.3 milliampere constant current 60 Hz pulsed DC shocking current was established between the stainless steel grid floor and the tap. After 20 seconds of non-shocked drinking, an alternating 5 second "shock-on" and 5 second "shock-off" cycle began and continued for a total of 5 minutes. The number of shocks taken by each rat during the 5 minute interval was recorded and compared to a control group. […]

| Compound | Result (protection from pentylenetetrazole clonic seizures) [1] | Result (inhibition of 3H-diazepam binding) [2] | Result (number of shocks taken vs control, conflict procedure) [3] |
| --- | --- | --- | --- |
| O=Cc1cnn2c(-c3cccc(C(F)(F)F)c3)ccnc12 [Example 48, 7-(α,α,α-Trifluoro-m-tolyl)pyrazolo[1,5-a]pyrimidine-3-carboxaldehyde] | Active |  |  |
| CCOC(=O)c1cnn2c(-c3cccc(C(F)(F)F)c3)ccnc12 [Example 16, 7-(α,α,α-Trifluoro-m-tolyl)pyrazolo[1,5-a]pyrimidine-3-carboxylic acid ethyl ester] | Active | Active | Active |
| CCOC(=O)c1cnn2c(-c3cccc(C)c3)ccnc12 [Example 77, Ethyl 7-(m-tolyl)pyrazolo[1,5-a]pyrimidine-3-carboxylate] | Active |  |  |
| Cc1cnc2c(Cl)cnn2c1-c1cccc(C(F)(F)F)c1 [Example 25, 3-Chloro-6-methyl-7-(α,α,α-trifluoro-m-tolyl)pyrazolo[1,5-a]pyrimidine] |  | Active | Active |
| CCOC(=O)c1cnn2c(-c3ccc(CC)cc3)ccnc12 [Example 61, Ethyl 7-(p-ethylphenyl)pyrazolo[1,5-a]pyrimidine-3-carboxylate] | Active |  |  |
| COc1cccc(-c2ccnc3c(C#N)cnn23)c1 [Example 27, 7-(m-Methoxyphenyl)pyrazolo[1,5-a]pyrimidine-3-carbonitrile] | Active | Active |  |
| N#Cc1cnn2c(-c3ccccc3C(F)(F)F)ccnc12 [Example 21, 7-(α,α,α-Trifluoro-o-tolyl)pyrazolo[1,5-a]pyrimidine-3-carbonitrile] |  |  | Active |
| COCc1cnn2c(-c3cccc(C(F)(F)F)c3)ccnc12 [Example 80, 3-(Methoxymethyl)-7-(α,α,α-trifluoro-m-tolyl)pyrazolo[1,5-a]-pyrimidine] | Active |  |  |
| N#Cc1c(C(N)=O)nn2c(-c3cccc(C(F)(F)F)c3)ccnc12 [Example 19, 3-Cyano-7-(α,α,α-trifluoro-m-tolyl)pyrazolo[1,5-a]pyrimidine-2-carboxamide] | Active | Active |  |
| CCOC(=O)c1ncn2c(-c3cccc(C(F)(F)F)c3)ccnc12 [Example 56, Ethyl 4-(α,α,α-trifluoro-m-tolyl)imidazolo[1,5-a]pyrimidine-8-carboxylate] | Active |  |  |
| CC(=O)c1cnn2c(-c3cccc(C(F)(F)F)c3)ccnc12 [Example 54, Methyl 7-(α,α,α-trifluoro-m-tolyl)pyrazolo[1,5-a]pyrimid-3-yl ketone] | Active |  |  |
| Cc1cnc2ccnn2c1-c1cccc(C(F)(F)F)c1 [Example 24, 6-Methyl-7-(α,α,α-trifluoro-m-tolyl)pyrazolo[1,5-a]pyrimidine] |  | Active | Active |
| N#Cc1cnn2c(-c3cccc(F)c3)ccnc12 [Example 76, 7-(m-Fluorophenyl)pyrazolo[1,5-a]pyrimidine-3-carbonitrile] | Active |  |  |
| ON=Cc1cnn2c(-c3cccc(C(F)(F)F)c3)ccnc12 [Example 49, 7-(α,α,α-Trifluoro-m-tolyl)pyrazolo[1,5-a]pyrimidine-3-carboxaldehyde, oxime] | Active |  |  |
| CCOC(=O)c1cnn2c(-c3ccc(OC)c(OC)c3)ccnc12 [Example 59, Ethyl 7-(3,4-dimethoxyphenyl)pyrazolo[1,5-a]pyrimidine-3-carboxylate] | Active |  |  |
| FC(F)(F)c1cccc(-c2ccnc3ccnn23)c1 [Example 12, 7-(α,α,α-Trifluoro-m-tolyl)pyrazolo[1,5-a]pyrimidine] | Active | Active |  |
| CN(C)CCOC(=O)c1cnn2c(-c3cccc(C(F)(F)F)c3)ccnc12 [Example 79, 2-Dimethylaminoethyl 7-(α,α,α-trifluoro-m-tolyl)pyrazolo[1,5-a]-pyrimidine-3-carboxylate] | Active |  |  |
| FC(F)(F)c1cccc(-c2ccn3nccc3n2)c1 [Example 66, 5-(α,α,α-Trifluoro-m-tolyl)pyrazolo[1,5-a]pyrimidine] | Active |  |  |
| c1ccc(-c2ccn3nccc3n2)cc1 [Example 67, 5-Phenylpyrazolo[1,5-a]pyrimidine] | Active |  |  |
| c1ccc(-c2ccnc3ccnn23)cc1 [Example 1, 7-Phenylpyrazolo[1,5-a]pyrimidine] |  | Active | Active |
| FC(F)(F)c1cccc(-c2ccnc3c(Cl)cnn23)c1 [Example 14, 3-Chloro-7-(α,α,α-trifluoro-m-tolyl)pyrazolo[1,5-a]pyrimidine] | Active | Active |  |
| N#Cc1cnn2c(-c3cccc(C(F)(F)F)c3)ccnc12 [Example 3, 7-(α,α,α-Trifluoro-m-tolyl)pyrazolo[1,5-a]pyrimidine-3-carbonitrile] | Active | Active | Active |
| Cc1cnc2c(C#N)cnn2c1-c1cccc(C(F)(F)F)c1 [Example 23, 6-Methyl-7-(α,α,α-trifluoro-m-tolyl)pyrazolo-[1,5-a]pyrimidine-3-carbonitrile] | Active | Active |  |
| CCOC(=O)c1cnn2c(-c3ccc(C)c(C)c3)ccnc12 [Example 63, Ethyl 7-(3,4-xylyl)pyrazolo[1,5-a]pyrimidine-3-carboxylate] | Active |  |  |
| FC(F)(F)c1cccc(-c2ccnc3c(Br)cnn23)c1 [Example 15, 3-Bromo-7-(α,α,α-trifluoro-m-tolyl)pyrazolo[1,5-a]pyrimidine] | Active | Active |  |
| N#Cc1ncn2c(-c3cccc(C(F)(F)F)c3)ccnc12 [Example 29, 4-(α,α,α-Trifluoro-m-tolyl)imidazo[1,5-a]pyrimidine-8-carbonitrile] | Active | Active | Active |
| Cc1nn2c(-c3cccc(C(F)(F)F)c3)ccnc2c1C#N [Example 11, 2-Methyl-7-(α,α,α-trifluoro-m-tolyl)pyrazolo[1,5-a]pyrimidine-3-carbonitrile] | Active | Active | Active |
